Laboratory results published in ChEMBL document CHEMBL1155711, “Bidentatoside I, a new triterpene saponin from Achyranthes bidentata” (J Nat Prod, 2001).
The source made the active and inactive calls. The rule behind the calls is not given here.

Test system: HT-29
Assay: Potentiation of cisplatin-induced cytotoxicity in human HT-29 cells
Assay type: functional, cell-based

Structure (SMILES): CC1(C)CC[C@]2(C(=O)O[C@@H]3O[C@H](CO)[C@@H](O)[C@H](O)[C@H]3O)CC[C@]3(C)C(=CC[C@@H]4[C@@]5(C)CC[C@H](O[C@@H]6O[C@H](C(=O)O)[C@@H](O)[C@@H]7OC(O)(C(=O)O)C(OCC(=O)O)O[C@@H]67)C(C)(C)[C@@H]5CC[C@]43C)[C@@H]2C1 (stereo partly specified)
- Activity: inactive
